Test results: ChEMBL document CHEMBL1201862, “PubChem BioAssay data set” (2004)
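Briefly, cells in 96-well plates were exposed to five compound concentrations for 48 h, and endpoints were estimated by linear interpolation. GI50 marks 50% less growth.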 Calls of active or inactive are those of the source. No stated cut-off is given here; in the data, active = GI50 up to about 1.1 µM and inactive = higher.

How the values were obtained:
Test in all cases: NCI tumour cell line growth inhibition, 48 h
ACHN = test system: ACHN
DU-145 = test system: DU-145
HCT-116 = test system: HCT-116
HCT-15 = test system: HCT-15
HT-29 = test system: HT-29
KM12 = test system: KM12
MCF7 = test system: MCF7
NCI-H460 = test system: NCI-H460
OVCAR-5 = test system: OVCAR-5
PC-3 = test system: PC-3
SK-OV-3 = test system: SK-OV-3
SNB-75 = test system: SNB-75
SR = test system: SR
SW-620 = test system: SW-620
U-251 = test system: U-251
UACC-257 = test system: UACC-257
UACC-62 = test system: UACC-62
MOLT-4 = test system: MOLT-4
SF-539 = test system: SF-539

Structure (SMILES)	GI50 (ACHN)	GI50 (DU-145)	GI50 (HCT-116)	GI50 (HCT-15)	GI50 (HT-29)	GI50 (KM12)	GI50 (MCF7)	GI50 (NCI-H460)	GI50 (OVCAR-5)	GI50 (PC-3)	GI50 (SK-OV-3)	GI50 (SNB-75)	GI50 (SR)	GI50 (SW-620)	GI50 (U-251)	GI50 (UACC-257)	GI50 (UACC-62)	GI50 (MOLT-4)	GI50 (SF-539)
O=C(O)/C=C\C(=O)Nc1ccc2c(c1)-c1ccccc1C2	> 100 µM (inactive)	80.2 µM (inactive)	99.3 µM (inactive)	44.7 µM	> 100 µM (inactive)	> 100 µM (inactive)	37.3 µM (inactive)	> 100 µM (inactive)	> 100 µM (inactive)	69.2 µM (inactive)	> 100 µM (inactive)	> 100 µM (inactive)	44.9 µM (inactive)	> 100 µM (inactive)	56.2 µM (inactive)	98.6 µM (inactive)	> 100 µM (inactive)		
O=C(COc1ccc(/C=C/C(=O)c2ccc(Cl)cc2)cc1)Nc1c(Cl)cccc1Cl	> 100 µM (inactive)		38.2 µM (inactive)	> 100 µM	> 100 µM (inactive)	67.5 µM (inactive)		> 100 µM (inactive)	40.8 µM (inactive)		58.3 µM (inactive)	56.4 µM (inactive)	50 µM (inactive)	> 100 µM (inactive)	68.2 µM (inactive)	79.8 µM (inactive)	> 100 µM (inactive)	10.7 µM (inactive)	80.7 µM (inactive)
C=C1C[C@@H](O)[C@@H](Br)C(C)(C)[C@@]12C=CC(O)(CBr)CC2 (stereo partly drawn)	> 100 µM (inactive)	> 100 µM (inactive)	> 100 µM (inactive)	> 100 µM	47.6 µM (inactive)	1.6 µM (inactive)	59.6 µM (inactive)	66.4 µM (inactive)	13.7 µM (inactive)	1.48 µM (inactive)			14.8 µM (inactive)	> 100 µM (inactive)	63.4 µM (inactive)	> 100 µM (inactive)	43.3 µM (inactive)	21.4 µM (inactive)	
Cc1nc(-n2nc(-c3ccccc3)cc2-c2ccccc2)sc1C(/C=C/c1ccc([N+](=O)[O-])cc1)=N/NC(N)=S	46.1 µM (inactive)		15.8 µM (inactive)	28.4 µM	23.7 µM (inactive)	21.7 µM (inactive)		60.3 µM (inactive)	83.6 µM (inactive)		73.5 µM (inactive)	20.8 µM (inactive)		> 10 µM (inactive)	47.2 µM (inactive)	78.3 µM (inactive)	54.8 µM (inactive)	13.6 µM (inactive)	28 µM (inactive)
C=CCOC(=O)CC[C@H](NC(=O)[C@@H](CCC(F)(F)F)Cc1ccc(O)cc1)C(=O)OCC=C	47.9 µM (inactive)		> 100 µM (inactive)	> 100 µM	> 100 µM (inactive)	> 100 µM (inactive)	20.7 µM (inactive)		> 100 µM (inactive)		> 100 µM (inactive)	28.8 µM (inactive)	32.5 µM (inactive)	> 100 µM (inactive)			34 µM (inactive)	27.7 µM (inactive)	90.2 µM (inactive)
O=C(COc1ccc(OCC(=O)N2C(=O)CC(=O)N(c3ccccc3)C2=S)cc1)N1C(=O)CC(=O)N(c2ccccc2)C1=S	66.7 µM (inactive)	55.7 µM (inactive)	22.5 µM (inactive)	88.5 µM	61.2 µM (inactive)	27.4 µM (inactive)	45.9 µM (inactive)	40.9 µM (inactive)	> 100 µM (inactive)	56.9 µM (inactive)	77.4 µM (inactive)	> 100 µM (inactive)		72.1 µM (inactive)	46.1 µM (inactive)	82.2 µM (inactive)	32.2 µM (inactive)	41.8 µM (inactive)	
C=CCc1cccc2cc(C(=O)Nc3nc(C45CC6CC(CC(C6)C4)C5)cs3)c(=O)oc12	17 µM (inactive)	44.6 µM (inactive)	> 10 µM (inactive)	67 µM	49.8 µM (inactive)	28.1 µM (inactive)	> 100 µM (inactive)	29.9 µM (inactive)	> 100 µM (inactive)	29.6 µM (inactive)		24.2 µM (inactive)	28.9 µM (inactive)	31.7 µM (inactive)	20.2 µM (inactive)	32.8 µM (inactive)		34.7 µM (inactive)	> 100 µM (inactive)
Cc1cc(=O)oc2c3c(ccc12)OC(c1ccc(Br)cc1)CC3=O (stereo not drawn)	11.7 µM (inactive)		10.3 µM (inactive)	7.48 µM	14.7 µM (inactive)	13.9 µM (inactive)	4.27 µM (inactive)	15 µM (inactive)	16.3 µM (inactive)	6.25 µM (inactive)	8.15 µM (inactive)	3.02 µM (inactive)	3.23 µM (inactive)	4.2 µM (inactive)	5.9 µM (inactive)	13.1 µM (inactive)	7.98 µM (inactive)	1.79 µM (inactive)	9.98 µM (inactive)
COc1ccc(-c2nc3ncccn3c2-c2ccc(SC)cc2)cc1	7.57 µM (inactive)		1.1 µM (active)	1.51 µM	3.09 µM (inactive)	0.453 µM (active)		2.18 µM (inactive)	2.42 µM (inactive)	3.13 µM (inactive)	0.439 µM (active)	5.96 µM (inactive)	0.507 µM (active)	1.48 µM (inactive)	2.44 µM (inactive)	> 100 µM (inactive)	0.916 µM (active)	3.7 µM (inactive)	1.83 µM (inactive)
CCN(CC)c1ccc(Cl)c2c1C(O)(C(C)C)C2(C)C (stereo not drawn)	17.4 µM (inactive)		14.1 µM (inactive)	14.5 µM	11.8 µM (inactive)	15.1 µM (inactive)		13.4 µM (inactive)	16.6 µM (inactive)		15.6 µM (inactive)	18 µM (inactive)		18.1 µM (inactive)	16.8 µM (inactive)	14.5 µM (inactive)		16.5 µM (inactive)	19.8 µM (inactive)
O=c1/c(=C/c2ccc(-c3ccc(Cl)cc3Cl)o2)sc2n1[C@@H](c1ccc(Cl)cc1)C=C(c1cc(F)c(Cl)cc1Cl)N=2	> 100 µM (inactive)	65.2 µM (inactive)	37.9 µM (inactive)	35.6 µM	39.8 µM (inactive)	87.5 µM (inactive)	33.5 µM (inactive)	60.3 µM (inactive)	> 100 µM (inactive)	> 100 µM (inactive)	19.2 µM (inactive)	63.4 µM (inactive)		33.6 µM (inactive)	31.5 µM (inactive)	34.6 µM (inactive)	25 µM (inactive)	22.4 µM (inactive)	34.8 µM (inactive)
CC[C@@]1(O)C(=O)OCc2c1cc1n(c2=O)Cc2c-1nc1ccccc1c2/C=N\NC(=O)C(N)Cc1ccc(O)cc1 (stereo partly drawn)	0.133 µM (active)	0.331 µM (active)	0.804 µM (active)	4.32 µM	1.36 µM (inactive)	3.37 µM (inactive)	0.367 µM (active)	0.187 µM (active)			0.869 µM (active)	0.415 µM (active)	< 0.0188 µM (active)	1.52 µM (inactive)	0.248 µM (active)	2.45 µM (inactive)	0.209 µM (active)	0.0658 µM (active)	0.0731 µM (active)
Cc1nc2c(=O)[nH]c3ccc(Cl)cc3c2o1	> 100 µM (inactive)		> 100 µM (inactive)	> 100 µM	> 100 µM (inactive)	> 100 µM (inactive)	> 100 µM (inactive)	> 100 µM (inactive)	> 100 µM (inactive)	> 100 µM (inactive)	> 100 µM (inactive)	> 100 µM (inactive)	> 100 µM (inactive)	> 100 µM (inactive)	> 100 µM (inactive)	> 100 µM (inactive)	> 100 µM (inactive)	> 100 µM (inactive)	> 100 µM (inactive)
CN1CCN([C@H]2C[C@H]3[C@@H]4CC=C5C[C@@H](O)CC[C@]5(C)[C@H]4CC[C@]3(C)C2=O)CC1	> 100 µM (inactive)		> 100 µM (inactive)	> 100 µM	42.2 µM (inactive)	> 100 µM (inactive)	> 100 µM (inactive)	> 100 µM (inactive)	> 100 µM (inactive)	> 100 µM (inactive)	> 100 µM (inactive)	> 100 µM (inactive)	29.4 µM (inactive)	> 100 µM (inactive)	> 100 µM (inactive)	> 100 µM (inactive)	> 100 µM (inactive)	> 100 µM (inactive)	62.5 µM (inactive)
O=C1C=C2CC[C@H]3[C@@H]4CC[C@H](Oc5c6ccccc6nc6ccccc56)[C@H]4CC[C@@H]3[C@H]2CC1	48.4 µM (inactive)	87.7 µM (inactive)	37.1 µM (inactive)	24.7 µM	36.7 µM (inactive)	39.6 µM (inactive)		35.6 µM (inactive)	> 100 µM (inactive)	33.4 µM (inactive)	60.8 µM (inactive)	28.3 µM (inactive)		51.8 µM (inactive)	41.9 µM (inactive)	35.6 µM (inactive)	16.7 µM (inactive)		52.2 µM (inactive)
COc1ccc(C2=C(OC(C)=O)c3cccn3-c3ccc(Cl)cc3S2)cc1		9.66 µM (inactive)		3.62 µM	3.75 µM (inactive)	3.63 µM (inactive)	3.35 µM (inactive)			4.69 µM (inactive)	6.35 µM (inactive)	3.44 µM (inactive)	2.33 µM (inactive)	4.06 µM (inactive)		4.3 µM (inactive)	4.48 µM (inactive)	2.34 µM (inactive)	
Cc1[nH]n(-c2nc3c(c(=O)[nH]2)CCCC3)c(=O)c1CCO	> 100 µM (inactive)	> 100 µM (inactive)	> 100 µM (inactive)	> 100 µM	> 100 µM (inactive)	> 100 µM (inactive)	> 100 µM (inactive)	> 100 µM (inactive)	> 100 µM (inactive)	> 100 µM (inactive)	> 100 µM (inactive)			> 100 µM (inactive)	> 100 µM (inactive)	> 100 µM (inactive)	> 100 µM (inactive)	> 100 µM (inactive)	> 100 µM (inactive)
